Laboratory results: patent US20250221966A1, “RXFP1 AGONISTS” (BRISTOL-MYERS SQUIBB COMPANY, priority 2021, published 2025)

biological target: T1, human RXFP1 (Homo sapiens, UniProt Q9HBX9); experiment: RXFP1 cAMP assay (hRXFP1 HEK293 cAMP assay, HTRF); assay type: cell-based; conditions: HEK293 cells stably expressing human RXFP1, 30 min at room temperature, read-out: cAMP hRXFP1 HEK293 Assay EC50
T1 construct: expressed in transfected cells
T1 sequence (Q9HBX9 1-757): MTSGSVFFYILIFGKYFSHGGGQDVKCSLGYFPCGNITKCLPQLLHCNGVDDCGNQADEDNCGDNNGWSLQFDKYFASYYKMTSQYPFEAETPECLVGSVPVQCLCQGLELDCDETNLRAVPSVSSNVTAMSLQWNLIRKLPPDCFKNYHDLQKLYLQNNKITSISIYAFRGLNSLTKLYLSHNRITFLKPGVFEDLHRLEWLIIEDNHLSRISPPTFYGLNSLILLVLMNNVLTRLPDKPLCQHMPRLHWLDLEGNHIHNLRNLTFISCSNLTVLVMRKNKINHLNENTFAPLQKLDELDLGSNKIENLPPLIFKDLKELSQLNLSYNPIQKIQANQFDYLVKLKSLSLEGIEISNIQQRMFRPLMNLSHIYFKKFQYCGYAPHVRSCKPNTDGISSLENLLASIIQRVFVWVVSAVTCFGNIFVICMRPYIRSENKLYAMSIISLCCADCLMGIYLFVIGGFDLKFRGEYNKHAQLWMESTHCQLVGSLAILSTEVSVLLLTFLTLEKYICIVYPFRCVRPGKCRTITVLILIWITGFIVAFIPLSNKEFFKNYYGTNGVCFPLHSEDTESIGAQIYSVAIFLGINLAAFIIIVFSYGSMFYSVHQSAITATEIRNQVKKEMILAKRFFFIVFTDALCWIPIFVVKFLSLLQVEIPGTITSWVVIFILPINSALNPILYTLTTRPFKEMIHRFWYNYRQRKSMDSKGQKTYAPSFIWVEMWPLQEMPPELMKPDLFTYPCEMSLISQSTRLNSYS
Method in brief: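 HEK293 cells stably expressing human RXFP1 were suspended in HBSS (Ca/Mg) with 20 mM HEPES, 0.05% BSA and 0.5 mM IBMX, then treated with compounds (0.010 nM–50 μM, 2% DMSO final) for 30 min at room temperature. Intracellular cAMP was measured by HTRF, and potency was derived from 4-parameter logistic fits.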

EC50 [nM] | SMILES
4.8 | COc1ccc(-c2cc(C(OC(=O)Nc3ccccc3)C(=O)O)ccc2F)cc1C(=O)N[C@H]1[C@@H](C(=O)Nc2ccc(F)c(C(F)(F)F)c2)[C@H]2CC[C@@H]1/C2=C\C1CC1 (some centres unmarked) [compound 965]
128 | COc1ccc(C2CCCN2CC(C)(C)O)cc1C(=O)N[C@@H]1C2CCC(C2=CC2CC2)[C@@H]1C(=O)Nc1ccc(F)c(C(F)(F)F)c1 (some centres unmarked) [compound 607]
1390 | COc1ccc(C2=NOC(CNC(=O)OC(C)(C)C)C2)cc1C(=O)N[C@@H]1C2CCC(/C2=C/C(F)(F)F)[C@@H]1C(=O)Nc1ccc(F)c(C(F)(F)F)c1 (some centres unmarked) [compound 403]
2.1 | O=C(N[C@H]1[C@@H](C(=O)NC23CC(F)(C2)C3)[C@H]2CC[C@@H]1/C2=C\C1CC1)c1cc(C2=NOC3CC(CO)CC23)cc(F)c1OCC1CC1 (some centres unmarked) [compound 763]
83.5 | COc1ccc(C2=NOC3COCC23)cc1C(=O)N[C@H]1[C@@H](C(=O)NC2CCC(C(F)(F)F)C2)[C@H]2CC[C@@H]1/C2=C\C1CC1 (single isomer, unassigned) [Example 589]
20 | COc1ccc(C2=NOC(CO)C2)cc1C(=O)N[C@@H]1C2CCC(/C2=C/C2CC2)[C@@H]1C(=O)Nc1ccc(F)c(C(F)(F)F)c1 (some centres unmarked) [compound 381]
0.6 | COc1ccc(-c2cc(C(OC(=O)NC3CCC3)C(=O)O)ccc2F)cc1C(=O)N[C@H]1[C@@H](C(=O)Nc2ccc(F)c(C(F)(F)F)c2)[C@H]2CC[C@@H]1/C2=C\C1CC(F)(F)C1 (some centres unmarked) [compound 939]
220 | COc1cc(F)c(F)cc1C(=O)N[C@@H]1C2CCC(/C2=C/c2ccccc2Cl)[C@@H]1C(=O)Nc1ccc(F)c(C(F)(F)F)c1 (some centres unmarked) [compound 14]
5.4 | COc1ccc(-c2cc(C3=NOC(C(=O)O)C3)ccc2F)cc1C(=O)N[C@H]1[C@@H](C(=O)Nc2ccc(F)c(C(F)(F)F)c2)[C@H]2CC[C@@H]1/C2=C\C1CCCC1 (some centres unmarked) [compound 945]
1 | COc1cc(F)c(C2=NOC3COCC23)cc1C(=O)N[C@@H]1C2CCC(/C2=C/C2CC2)[C@@H]1C(=O)Nc1ccc(F)c(C(F)(F)F)c1 (some centres unmarked) [compound 420]
49 | COc1cc(F)c(F)cc1C(=O)N[C@@H]1C2CCC(/C2=C/c2ccccc2)[C@@H]1C(=O)Nc1cccc(S(=O)(=O)C(F)(F)F)c1 (some centres unmarked) [Example 127]
854 | COc1ccc(-c2cc(C(=O)O)ccc2F)cc1C(=O)N[C@@H]1C2CCC(/C2=C/C(=O)N(C)C)[C@@H]1C(=O)Nc1ccc(F)c(C(F)(F)F)c1 (some centres unmarked) [Example 323]
373 | COCCN1CCCC1c1ccc(OC)c(C(=O)N[C@@H]2C3CCC(C3=CC3CC3)[C@@H]2C(=O)Nc2ccc(F)c(C(F)(F)F)c2)c1 (some centres unmarked) [compound 666]
140 | COc1ccc(-c2cc(C(=O)NC(C)C)ccc2F)cc1C(=O)N[C@@H]1C2CCC(C2=C(C)C)[C@@H]1C(=O)Nc1ccc(F)c(C(F)(F)F)c1 (some centres unmarked) [compound 153]
3.4 | O=C(N[C@H]1[C@@H](C(=O)Nc2ccc(F)c(C(F)(F)F)c2)[C@H]2CC[C@@H]1/C2=C\C1CC1)c1cc(C2=NOC3CC(CO)CC23)cc(F)c1OCCCF (some centres unmarked) [compound 784]
99 | COc1ccc(C2CC3CNS(=O)(=O)C32)cc1C(=O)N[C@H]1[C@@H](C(=O)Nc2ccc(F)c(C(F)(F)F)c2)[C@H]2CC[C@@H]1/C2=C\C1CC1 (single isomer, unassigned) [compound 732]
29.3 | COc1ccc(C2=NO[C@H]3[C@@H]2[C@@H](O)C[C@H]3O)cc1C(=O)N[C@H]1[C@@H](C(=O)Nc2ccc(F)c(C(F)(F)F)c2)[C@H]2CC[C@@H]1/C2=C\C1CC1 (single isomer, unassigned) [compound 539]
3.2 | COc1ccc(C2=NOC3CC(C(C)(C)O)CC23)cc1C(=O)N[C@H]1[C@@H](C(=O)Nc2ccc(F)c(C(F)(F)F)c2)[C@H]2CC[C@@H]1/C2=C\C1CC1 (single isomer, unassigned) [compound 464]
160 | COc1cc(F)c(F)cc1C(=O)N[C@@H]1C2CCC(/C2=C/c2ccccc2F)[C@@H]1C(=O)Nc1ccc(F)c(C(F)(F)F)c1 (some centres unmarked) [compound 54]
1800 | COc1cc(F)c(F)cc1C(=O)N[C@@H]1C2CCC([C@@H]1C(=O)Nc1ccc(F)c(C(F)(F)F)c1)C21OCCO1 (some centres unmarked) [Example 147]

EC50 [nM] | SMILES
653 | COc1cc(C)c(C2=NOC3COCC23)cc1C(=O)N[C@H]1[C@@H](C(=O)Nc2ccc(F)c(C(F)(F)F)c2)[C@H]2CC[C@@H]1/C2=C\C1CC1 (single isomer, unassigned) [compound 686]
3 | COc1ccc(-c2cc(C(OC(=O)Nc3ccc(Cl)cc3)C(F)(F)F)ccc2F)cc1C(=O)N[C@@H]1C2CCC(/C2=C/C2CC2)[C@@H]1C(=O)Nc1ccc(F)c(C(F)(F)F)c1 (some centres unmarked) [compound 227]
32.6 | COc1ccc(C2=NOC3(CO)CCCC23)cc1C(=O)N[C@H]1[C@@H](C(=O)Nc2ccc(F)c(C(F)(F)F)c2)[C@H]2CC[C@@H]1/C2=C\C1CC1 (single isomer, unassigned) [compound 548]
65 | COc1ccc(C2CCOCC2)cc1C(=O)NC1C2CCC(/C2=C/C2CCC2)C1C(=O)Nc1ccc(F)c(C(F)(F)F)c1 (centres unmarked) [compound 369]
1300 | COc1ccc(C2=NOC3C(O)CCC23)cc1C(=O)N[C@H]1[C@@H](C(=O)Nc2ccc(F)c(C(F)(F)F)c2)[C@H]2CC[C@@H]1/C2=C\C1CC1 (single isomer, unassigned) [compound 706]
0.8 | COc1ccc(C2=NOC3COCC23)cc1C(=O)N[C@H]1[C@@H](C(=O)N[C@H](C)C2(C)CC2)[C@H]2CC[C@@H]1/C2=C\C1CC1 (some centres unmarked) [Example 447]
130 | COc1cc(F)c(F)cc1C(=O)N[C@@H]1C2CCC(/C2=C/C2=CCOCC2)[C@@H]1C(=O)Nc1ccc(F)c(C(F)(F)F)c1 (some centres unmarked) [compound 42]
815 | COc1ccc(C2=CCCN(CC(=O)O)C2)cc1C(=O)N[C@H]1[C@@H](C(=O)Nc2ccc(F)c(C(F)(F)F)c2)[C@H]2CC[C@@H]1/C2=C\C1CC1 [Example 259, 2-(5-(3-(((1R,2R,3S,4R,Z)-7-(cyclopropylmethylene)-3-((4-fluoro-3-(trifluoromethyl)phenyl)carbamoyl)bicyclo[2.2.1]heptan-2-yl)carbamoyl)-4-methoxyphenyl)-3,6-dihydropyridin-1(2H)-yl)acetic acid]
71 | COc1ccc(C2=NOC(C(=O)OC(C)(C)C)C2)cc1C(=O)N[C@@H]1C2CCC(/C2=C/C2CC2)[C@@H]1C(=O)Nc1ccc(F)c(C(F)(F)F)c1 (some centres unmarked) [compound 386]
5 | COc1ccc(-c2cc(C(O)C(=O)O)ccc2F)cc1C(=O)NC1C2CCC(/C2=C/C2CCC2)C1C(=O)Nc1ccc(F)c(C(F)(F)F)c1 (centres unmarked) [compound 356]
3.6 | COc1ccc(C2=NOC3COCC23)cc1C(=O)N[C@H]1[C@@H](C(=O)N[C@H](C)C2(C)CC2(F)F)[C@H]2CC[C@@H]1/C2=C\C1CC1 (some centres unmarked) [compound 770]
50 | COc1ccc(C2=NOC(CC(=O)O)C2)cc1C(=O)N[C@@H]1C2CCC(/C2=C/C2CC2)[C@@H]1C(=O)Nc1ccc(F)c(C(F)(F)F)c1 (some centres unmarked) [compound 392]
138 | CCCCNC(=O)[C@@H]1[C@H](NC(=O)c2cc(C3=NOC4COCC34)ccc2OC)[C@@H]2CC[C@H]1/C2=C/C1CC1 (some centres unmarked) [compound 614]
10 | COc1ccc(C2CC3CN(C(=O)OC(C)(C)C)CC32)cc1C(=O)N[C@H]1[C@@H](C(=O)Nc2ccc(F)c(C(F)(F)F)c2)[C@H]2CC[C@@H]1/C2=C\C1CC1 (single isomer, unassigned) [compound 731]
3.2 | COc1ccc(C2=NOC3COCC23)cc1C(=O)N[C@H]1[C@@H](C(=O)Nc2ccc(F)c(C(F)(F)F)c2)[C@H]2CC[C@@H]1/C2=C\c1cscn1 (some centres unmarked) [compound 737]
2.5 | COc1ccc(-c2ccc(C(CC(=O)O)C(F)(F)F)cc2F)cc1C(=O)N[C@H]1[C@@H](C(=O)Nc2ccc(F)c(C(F)(F)F)c2)[C@H]2CC[C@@H]1/C2=C\C1CC1 (some centres unmarked) [compound 883]
164 | COc1ccc(C2=NOC3COCC23)cc1C(=O)N[C@H]1[C@@H](C(=O)NCC2CC(F)(F)C2)[C@H]2CC[C@@H]1/C2=C\C1CC1 (some centres unmarked) [compound 621]
53 | COc1ccc(-c2ccc3[nH]cc(C(=O)O)c3c2)cc1C(=O)N[C@@H]1C2CCC(/C2=C/C(F)(F)F)[C@@H]1C(=O)Nc1ccc(F)c(C(F)(F)F)c1 (some centres unmarked) [compound 295]
300 | COc1ccc(-c2cc(C(=O)NCC(=O)O)ccc2F)cc1C(=O)N[C@@H]1C2CCC(C2=C(C)C)[C@@H]1C(=O)Nc1ccc(F)c(C(F)(F)F)c1 (some centres unmarked) [compound 193]
18 | COc1ccc(-c2cc([C@H](O)C(F)(F)F)ccc2F)cc1C(=O)NC1C2CCC(/C2=C/C2CC(F)(F)C2)C1C(=O)Nc1ccc(F)c(C(F)(F)F)c1 (some centres unmarked) [compound 358]

same assay, conditions: cAMP hRXFP1 HEK293 Assay EC50, HEK293 cells stably expressing human RXFP1, 30 min at room temperature

EC50 [nM] | SMILES
11 | COc1ccc(-c2cc(C(=O)O)ccc2F)cc1C(=O)N[C@H]1[C@@H](C(=O)Nc2ccc(F)c(C(F)(F)F)c2)[C@H]2CC[C@@H]1/C2=C\c1ccccc1 [compound 80]
